The record followed here is ChEMBL document CHEMBL1687744, “Furanone at subinhibitory concentrations enhances staphylococcal biofilm formation by luxS repression” (Antimicrob Agents Chemother, 2009).

For orientation: MBC means the smallest concentration meeting the test's criterion for killing. A high value points to less potent killing. As a reminder, the MIC is the lowest concentration found to suppress growth.

In brackets after ≈: the same amount, converted by molar mass. Activity calls are given as the source filed them.

Data set [1] has as its system Staphylococcus epidermidis. In words: Induction of biofilm formation in Staphylococcus epidermidis 1457 at 1 to 100 uM after 18 hrs by crystal violet staining. Format: functional, organism-based.
For data set [2], the system named is L929. In words: Cytotoxicity against mouse L929 cells after 24 hrs at 18.6 +/- 12.3 uM by LDH release assay. As to conditions: l929, 24 h. Format: cell-based. A general note: LDH leaks from cells whose membrane has failed.
Data set [3] deals with Staphylococcus epidermidis. In words: Bactericidal activity against Staphylococcus epidermidis 1457 at >50 uM after 18 hrs by CFU count assay. The data set is classed as functional, organism-based.
Data set [4] deals with L929. In words: Cytotoxicity against mouse L929 cells after 24 hrs at 38.35 +/- 15.0 uM by LDH release assay. As to conditions: l929, 24 h. Format: cell-based.
In data set [5] the test system is L929. The data set is described as follows: Cytotoxicity against mouse L929 cells after 24 hrs at 12.1 +/- 5.7 uM by LDH release assay. The data set is classed as cell-based. The settings on record: l929, 24 h.
Data set [6] relates to Staphylococcus epidermidis. The data set is described as follows: Effect on biofilm formation in luxS gene-deficient Staphylococcus epidermidis 1457 at >10 uM by crystal violet staining. The data set is classed as functional, organism-based.
Data set [7] has as its system Staphylococcus epidermidis. In words: Antimicrobial activity against ica gene-deficient Staphylococcus epidermidis 047 by macrodilution method. The data set is classed as functional.
Data set [8] deals with Staphylococcus epidermidis. The data set is described as follows: Induction of biofilm formation in ica gene-deficient Staphylococcus epidermidis 1457 after 18 hrs by crystal violet staining. Format: functional, organism-based.
Data set [9] relates to Staphylococcus aureus. In words: Increase in biofilm formation in Staphylococcus aureus Newman by crystal violet staining. Format: functional, organism-based.
Data set [10] deals with Staphylococcus aureus. In words: Antimicrobial activity against Staphylococcus aureus 113 by macrodilution method. The data set is classed as functional.
Data set [11] concerns Staphylococcus epidermidis. The data set is described as follows: Bactericidal activity against ica gene-deficient Staphylococcus epidermidis 047 at >10 uM after 18 hrs by CFU count assay. The data set is classed as functional, organism-based.
Data set [12] has as its system Staphylococcus epidermidis. The data set is described as follows: Increase in polysaccharide intercellular adhesin in Staphylococcus epidermidis 1457 at 2.5 to 20 uM by ant-PIA staining. The data set is classed as functional, organism-based.
For data set [13], the system named is Bacillus subtilis. The data set is described as follows: Antimicrobial activity against Bacillus subtilis by macrodilution method. Format: functional.
Data set [14] has as its system Staphylococcus aureus. In words: Induction of biofilm formation in Staphylococcus aureus 113 after 18 hrs by crystal violet staining. Format: functional, organism-based.
Data set [15] concerns Bacillus subtilis. The data set is described as follows: Induction of biofilm formation in Bacillus subtilis after 18 hrs by crystal violet staining. Format: functional, organism-based.
The subject of data set [16] is Staphylococcus aureus. In words: Increase in biofilm formation in Staphylococcus aureus Newman after 18 hrs by crystal violet staining. The data set is classed as functional, organism-based.
For data set [17], the system named is Pseudomonas aeruginosa. The data set is described as follows: Inhibition of biofilm formation of Pseudomonas aeruginosa PAO1 at 0.322 uM to 2.58 mM. The data set is classed as functional, organism-based.
Data set [18] has as its system Staphylococcus epidermidis. The data set is described as follows: Bactericidal activity against Staphylococcus epidermidis 047 at >10 uM after 18 hrs by CFU count assay. The data set is classed as functional, organism-based.
Data set [19] relates to Staphylococcus epidermidis. In words: Induction of biofilm formation in Staphylococcus epidermidis 1457 at 0.1 times MIC to 0.2 X MIC after 18 hrs by crystal violet staining. Format: functional, organism-based.
Data set [20] concerns Staphylococcus epidermidis. In words: Induction of biofilm formation in ica gene-deficient Staphylococcus epidermidis 047 after 18 hrs by crystal violet staining. Format: functional, organism-based.
The subject of data set [21] is Staphylococcus epidermidis. The data set is described as follows: Bactericidal activity against ica gene-deficient Staphylococcus epidermidis 1457 at >10 uM after 18 hrs by CFU count assay. Format: functional, organism-based.
Data set [22] has as its system Staphylococcus aureus. In words: Bactericidal activity against Staphylococcus aureus 113 at >10 uM after 18 hrs by CFU count assay. The data set is classed as functional, organism-based.
Data set [23] relates to Staphylococcus epidermidis. The data set is described as follows: Bactericidal activity against Staphylococcus epidermidis 1457 at >10 uM after 18 hrs by CFU count assay. The data set is classed as functional, organism-based.
Data set [24] concerns L929. The data set is described as follows: Cytotoxicity against mouse L929 cells after 24 hrs at 28.4 +/- 8.4 uM by LDH release assay. The data set is classed as cell-based. As to conditions: l929, 24 h.
Data set [25] has as its system Staphylococcus epidermidis. In words: Antimicrobial activity against ica gene-deficient Staphylococcus epidermidis 1457 by macrodilution method. The data set is classed as functional.
For data set [26], the system named is Staphylococcus aureus. In words: Increase in biofilm formation in agr gene-deficient Staphylococcus aureus Newman by crystal violet staining. Format: functional, organism-based.
In data set [27] the test system is Staphylococcus epidermidis. The data set is described as follows: Reduction luxS mRNA level in Staphylococcus epidermidis 1457 at 20 uM. The data set is classed as functional, organism-based.
The test system of data set [28] is Staphylococcus aureus. The data set is described as follows: Bactericidal activity against Staphylococcus aureus Newman at >10 uM after 18 hrs by CFU count assay. The data set is classed as functional, organism-based.
For data set [29], the system named is Pseudomonas aeruginosa. In words: Antimicrobial activity against Pseudomonas aeruginosa PAO1 by macrodilution method. The data set is classed as functional.
The subject of data set [30] is Staphylococcus epidermidis. In words: Increase in biofilm formation in Staphylococcus epidermidis 047 at 0.1 times MIC to 0.2 X MIC after 18 hrs by crystal violet staining. Format: functional, organism-based.
Data set [31] has as its system Staphylococcus epidermidis. In words: Effect on agr quorum sensing system in Staphylococcus epidermidis 1457 assessed as RNA3 expression level at 2.5 to 20 uM. The data set is classed as functional, organism-based.
The test system of data set [32] is Staphylococcus epidermidis. The data set is described as follows: Antimicrobial activity against Staphylococcus epidermidis 047 by macrodilution method. The data set is classed as functional.
The subject of data set [33] is Staphylococcus aureus. The data set is described as follows: Antimicrobial activity against Staphylococcus aureus Newman by macrodilution method. Format: functional.
For data set [34], the system named is Staphylococcus epidermidis. The data set is described as follows: Antimicrobial activity against Staphylococcus epidermidis 1457 by macrodilution method. The data set is classed as functional.

On to `CCCC(Br)C1=C(Br)/C(=C/Br)OC1=O` (configuration not stated), for which the outcome in [1] was inactive. The molecule also yielded an Activity in [2] of 30%. Also, in data set [3], the outcome was Active.

On to `C#CCOC(CCC)C1=C(Br)/C(=C/Br)OC1=O` (configuration not stated), for which the outcome in data set [1] was inactive. Besides, the result in data set [3] was Active. The molecule also showed an Activity in data set [4] of 30%.

In data set [5], `CCCC(OCCOCCOCCN=[N+]=[N-])C1=C(Br)/C(=C/Br)OC1=O` (configuration not stated) had an Activity of 30%. For the same molecule, the result in data set [1] was inactive. Also, the result in data set [3] was Active.

In the case of `CCCCC1=C(Br)/C(=C/Br)OC1=O`, the outcome in [6], in [8], in [14], in data set [15], in [20] and in data set [31] was inactive. Further, the MBC in data set [7] is greater than 130 µM; in data set [10], greater than 130 µM; in [13] it was 100 µM (≈ 31 µg/mL); in data set [25], greater than 130 µM; in [29] it was greater than 130 µM; in data set [32], greater than 130 µM. Also, the MBC in [33] and in data set [34] was greater than 130 µM each time. Also, the MIC in data set [7] is 30 µM (≈ 9.3 µg/mL); in [10], 15 µM (≈ 4.65 µg/mL); in [13] it was 100 µM (≈ 31 µg/mL); in data set [25] it was 65 µM (≈ 20.1 µg/mL); in data set [29], greater than 130 µM; in data set [32], 50 µM (≈ 15.5 µg/mL). Further, the MIC was determined as 15 µM (≈ 4.65 µg/mL) in [33] and 50 µM (≈ 15.5 µg/mL) in data set [34]. The outcome in [9], in [11], in data set [12], in data set [16], in data set [18] and in data set [19] was Active. The result in data set [21], in data set [22], in data set [23], in [26], in data set [27] and in data set [28] was Active. Also, the outcome in data set [30] and in data set [3] was Active. For the same molecule, the inhibition result in [17] is “Active”. Moreover, the Activity in data set [24] turned out to be 30%.
